Assay results published in patent publication US20100055065A1, “AGENT FOR INHIBITING PRODUCTION OF HEPATITIS C VIRUS AND ITS USE” (MIYAZAKI PREFECTURAL INDUSTRIAL SUPPORT FOUNDATION, priority 2008, published 2010).
≈ marks a conversion by molar mass, not a printed value.

Tests used:
HCV replicon = assay: HCV replication suppressive activity test (replicon assay, luciferase); assay type: cell-based, Hepatitis C virus; details: for HCV replication suppressive (inhibitory) activity, in words: replicon cell assay
Description: The HCV-replicon cell line was established by transducing sub-genomic RNA into human hepatoma Huh-7 cell cytoplasm. The sub-genomic RNA was prepared by replacing the translated region of HCV genome RNA structural proteins with firefly luciferase gene, internal ribosome entry site (IRES) of the encephalomyocarditis virus and neomycin phosphotransferase gene. The cell line obtained was used for assessment of production of HCV replicon RNA. The production quantity of HCV replicon RNA was measured by the luciferase assay method. (Lohmann et al., Science 285, (1999) 110; Sakamoto et al. Nat. Chem. Biol. 1, (2005) 333)
In order to determine replication quantity of HCV-RNA, luciferase genes from firefly were transduced into HCV-RNA as a reporter gene. The gene transduction was carried out according to the method of Krieger et al. (See; Krieger et al. J. virol. 75, (2001) 4614) in such manner that luciferase genes were fused together neomycin-resistant genes beneath the IRES of HCV gene.
With this HCV subgenome, the replication efficiency of HCV could be estimated by measuring luciferase activity in the HCV replicon cells. The HCV replicon cells used were routinely grown in DMEM (Gibco cat. No. 10569-010) supplemented with Glutamax (Invitrogen), 10% fetal bovine serum (FBS), 1% penicillin/streptomycin (Invitrogen) and 500 μg/ml G418 (Invitrogen). The cells were maintained at 37° C. in humidified atmosphere containing 5% CO2. For the HCV replication assay, the replicon cells in DMEM supplemented with Glutamax and 5% FBS were seeded in a 96-well plate so as to fill every well with 5000 cells, and incubated for 24 hours.
The test was carried out in such a way that the HCV replicon cells were cultured for 72 hours after adding test samples in different concentrations. The Quantity of the luciferase activity was determined by the Steady-Glo Luciferase Assay System (Promega) according to the manufacture's instructions and the luminescence was measured by DTX 800 Multimode Detector (Beckman). In this test, the replication inhibitory activity is expressed as a concentration of samples required for inhibiting 50 percents of the replication of HCV replicon cell (IC50). Specific activity is a reciprocal number of IC50 (1/IC50). Total activity is calculated by multiplying the yield weight of the HCV replicon cell by specific activity.

[1] = Cytotoxicity test (Cell Counting Kit-8); assay type: cell-based, human; details: human; HCV replicon cells; Table 1
Description: (§1) The cytotoxicity of the samples was measured by Cell Counting Kit-8 (CCK-8; Dojindo Molecular Technologies) according to the manufacture's instructions. Briefly, 10 μl/a well of CCK-8 reagent were added to the HCV replicon cells cultured in a 96-well plate and then incubated at 37° C. for 60 min. The absorbance of each well was measured at 450 nm with a reference wavelength at 650 nm using an Emax Precision microplate reader (Molecular Devices Inc.). Cell viability was calculated as relative index of control cells and effects of samples and was expressed as the concentration of samples required for 50% cytotoxicity of the cells (CC50).

[2] = tested on: HCV replicon cells (human hepatoma Huh-7); assay: Cytotoxicity test (Cell Counting Kit-8); assay type: cell-based; details: Table 1
Description: as §1

[3] = HCV replicon cells, 72 hours, Table 1

Molecule	IC50 (HCV replicon; Hepatitis C virus, HCV replicon cells, 72 hours, Table 1) [µg/mL]	Ratio CC50/IC50 (HCV replicon; Table 1)	CC50 [1] [µg/mL]	Replication suppressive activity IC50 (HCV replicon; [3]) [µg/mL]	HCV replication suppressive (inhibitory) activity, in words (HCV replicon)	Cytotoxicity CC50 [2] [µg/mL]
Oc1cc(O)c2c(c1)O[C@H](c1ccc(O)c(O)c1)[C@H](O)C2 [Epicatechin]	27.3 (≈ 94.1 µM)	4.2	114 (≈ 392 µM)	–	–	–
Catechin	–	6.2	–	16.18	no anti-HCV production activity	–
O=C(/C=C/c1ccc(O)c(O)c1)O[C@@H]1C[C@](O)(C(=O)O)C[C@@H](O)[C@H]1O [chlorogenic acid]	–	–	–	–	seem not to have the inhibition activity	–
Oc1cc(O)c2c(c1)O[C@H](c1ccc(O)c(O)c1)[C@H](O)[C@H]2c1c(O)cc(O)c2c1O[C@H](c1ccc(O)c(O)c1)[C@H](O)C2 [Procyanidin B2]	–	–	–	>25.0	no anti-HCV production activity	>25.0
